Common to all, as to test: microbe, parasite or virus in culture
The subject of assay [1] is T1, S. pombe wild-type 972 h-.
T1 construct: 972 h-
Set-up: species or system whole yeast cells; macro tube broth dilution MIC in YEPD at 30 C, visual clearness of medium. To be noted: Schizosaccharomyces pombe, 48 h. Here is the method: (§1) Standard YEPD (Yeast Extract, Peptone, Dextrose) ([Sherman, 1990]), YEPD+S (YEPD with 1.2M sorbitol), YES (Yeast Extract, Dextrose and Supplements of Adenine, Histidine, Leucine, Uracil and Lysine) ([Alfa et al., 1993]) and YES+S (YES with 1.2 M sorbitol) ([Ribas et al., 1991]; [Ishiguro et al., 1997]), media were used for determination of MIC values of the tested compounds. A stock solution of 10 mg/ml of each tested compounds was prepared in DMSO and serial dilutions in DMSO were prepared. The final concentration of DMSO was 2% in the YEPD medium. […] The serial dilutions of compounds were dispensed into test tubes with 1 ml of YEPD or YEPD+S to make final concentrations of 200, 100, 50, 25, 12.5, 6.26, 3.125, 1.6, 0.8 and 0.4 μg/ml. The tested yeast strains were previously grown in YEPD, YEPD+S, YES or YES+S agar plates at 30°C for 48 h. For inoculation of YEPD or YEPD+S macro test tubes a suspension of tested fungus was produced with 10^5 cfu/ml (cfu - colony forming unit). 10 μl of suspension was used for inoculation of each tube. After 48 h incubation at 30°C the tubes were checked. The MIC value is the lowest concentration of the tested compound that could inhibit the fungal growth and the medium remained clear. From each tube 10 μl culture was plated on YEPD agar medium to check the contamination. The MIC tests were carried out in three parallels. The screening of the first generation of isochromanones was carried out in YEPD and YEPD+S media (1E-16E). The fungal strains analyzed are: C. albicans wild-type ATCC 26555, SC5314 and ATCC 90028, S. cerevisiae wild-type CVX12-3A and pbr1-1 mutant, and S. pombe wild-type (972h^–), pbr1-8 mutant and pbr1-6 mutant. The bold numbers in Tables 4–6 indicate the more efficient compounds. […] The weak or moderate efficacy against the C. albicans wild-type strains was observed by some substances (3E, 4Z, 5Z, 10E, 15, and 16E). The efficiency toward the S. pombe pbr1-6 mutant strain was the highest inhibitory activity, except 7E, 11E, 12 and 14E. […] As regards the other S. pombe pbr1-8 mutant strain, the antifungal activity of the tested compounds was slightly lower, but the substances with the best activity are partly identical to the best compounds mentioned with pbr1-6, (i.e., 1E, 3E, 4Z, 5Z).

Assay [2] has as its system T2, S. cerevisiae wild-type CVX12-3A.
T2 construct: CVX12-3A
Also noted: species or system whole yeast cells; macro tube broth dilution MIC in YEPD at 30 C, visual clearness of medium. To be noted: Saccharomyces cerevisiae, 48 h. As for the experimental part: as §1

The subject of assay [3] is T1, S. pombe wild-type 972 h-. Also noted: species or system whole yeast cells; micro-culture broth dilution MIC in YES at 30 C, turbidity, complete growth inhibition. Particulars: Schizosaccharomyces pombe.
The test system of assay [4] is T2, S. cerevisiae wild-type CVX12-3A. Set-up: species or system whole yeast cells; micro-culture broth dilution MIC in YES at 30 C, turbidity, complete growth inhibition. Particulars: Saccharomyces cerevisiae.

Converted amounts (≈) assume the structure as drawn. Read-outs that look alike come from different tables or passages of the source. Where only a bound is given, the exact number is not on record here.

Turning to `CC[C@H](C)C[C@H](C)CCCCCCCCC(=O)N[C@H]1C[C@@H](O)[C@@H](NCCN)NC(=O)[C@@H]2[C@@H](O)CCN2C(=O)[C@H]([C@H](O)CCN)NC(=O)[C@H]([C@H](O)[C@@H](O)c2ccc(O)cc2)NC(=O)[C@@H]2C[C@@H](O)CN2C(=O)[C@H]([C@@H](C)O)NC1=O` [caspofungin], the MIC in assay [1] (read-out: MIC) was found to be 5 µg/mL (≈ 4.57 µM); in assay [2] (read-out: MIC), 1 µg/mL (≈ 0.915 µM); in assay [3] (read-out: MIC) it was 10 µg/mL (≈ 9.15 µM); in assay [4] (read-out: MIC) it was 0.5 µg/mL (≈ 0.457 µM).
In the case of `O=c1oc2ccc3ccccc3c2cc1-c1ccccc1CO` [compound 12], the MIC in assay [1] (YEPD medium) is 200 µg/mL (≈ 662 µM); in assay [2] (YEPD medium), 100 µg/mL (≈ 331 µM); in assay [3] (YES medium), above 200 µg/mL; in assay [4] (YES medium) it was above 200 µg/mL.
As to `O=c1oc2ccccc2cc1-c1ccccc1CO` [compound 15], the MIC in assay [1] (YEPD medium) was 100 µg/mL (≈ 396 µM); in assay [2] (YEPD medium) it was 50 µg/mL (≈ 198 µM); in assay [3] (YES medium), above 200 µg/mL; in assay [4] (YES medium) it was above 200 µg/mL.
